Measured values taken from patent US20080063628A1, “METHODS TO PROMOTE CELL DIFFERENTIATION” (priority 2006, published 2008).

Test system: amniotic fluid-derived cells
Assay: Chronic trichostatin A treatment, gene expression by RT-PCR (Example 4)
Type: cell-based, human
Description: Amniotic fluid derived cells were obtained according to the methods described in Example 14. Cells were seeded into a 24-well tissue culture plate at a density of 5000/cm^2 and cultured in AMNIOMAX (Invitrogen) under standard cell culture conditions until confluent. After the cells reached confluency, sample wells were treated with either 500 nM or 1.0 μM trichostatin A diluted in DMSO and medium; control wells were treated with an equivalent concentration of DMSO. At 24 hour intervals over the three day incubation period, cultures underwent a complete medium change, and a fresh dilution of trichostatin A or DMSO was added as appropriate.
RNA samples were obtained from the treated cultures at 24 hour intervals after the initial addition of trichostatin A or DMSO. The culture medium was removed, cells were washed with PBS, and RLT lysis buffer with P-mercaptoethanol (Qiagen) was added. RNA was purified using the RNeasy Mini Kit (Qiagen); RNA quantity and quality was determined using a spectrophotometer. cDNA was made using the iScript cDNA synthesis kit (BioRad).
Expression levels of Sox17, HNF-3 beta, Pdx-1, insulin, and glucagon were determined by RT-PCR. Samples of 20 ng cDNA were used in each reaction, performed on an Applied Biosystems 7500 according to the methods described in Example 15. Data were analyzed using the accompanying software. Human pancreas cDNA was included as a control. Results were normalized against GAPDH expression levels. Basal expression of insulin and Sox-17 genes was detectable in untreated amniotic fluid-derived cells. However, expression of glucagon and Pdx-1 genes was not detectable in untreated cells by RT-PCR up to cycle 40. HNF-3 beta was not detected in untreated cells at 24-hours in culture but was weakly expressed at 48 and 72 hours culture time.
Real-time PCR amplifcation and quantitative analysis. Unless otherwise stated, all reagents were purchased from Applied Biosystems. Real-time PCR reactions were performed using the ABI PRISM™ 7500 Sequence Detection System. TAQMAN™ FAST UNIVERSAL PCR MASTER MIX™ (ABI, CA) was used with 20 ng of reverse transcribed RNA in a total reaction volume of 20 μl. Each cDNA sample was run in duplicate to allow correction of pipetting errors. Primers and FAM-labeled TAQMAN™ probes were used at concentrations of 200 nM. The level of expression for each target gene was normalized using the pre-developed Applied Biosystem's human glyceraldehyde-3-phosphate dehydrogenase (GAPDH) endogenous control kit. Primers and probes were designed using either ABI PRISM PRIMER EXPRESS™ software or a pre-developed ABI gene analysis kit. For each gene, either one of the primers or the probe were designed to be exon-boundary spanning. This eliminated the possibility of the primers/probe binding to any genomic DNA present. The primer and probe sets are listed as follows: Pdx-1 (Hs00426216), Insulin (Hs00355773), glucagon (Hs00174967), and FoxA2 (HNF 3-beta) (Hs00232764). The remaining primers were designed using the PRIMERS program (ABI, CA). After an initial 95° C. incubation for 20 sec, samples were cycled 40 times in two stages: a denaturation step at 95° C. for 3 sec, followed by an annealing/extension step at 60° C. for 30 sec.
For each primer/probe set, a cycle time value was determined as the cycle number at which the fluorescence intensity of the PCR reaction reached a specific value in the middle of the exponential region of amplification. An increase in expression of a gene corresponded to a decrease in the number of cycles required for the fluorescence intensity to reach this value.

In the case of `CC(/C=C/C(=O)NO)=C\[C@@H](C)C(=O)c1ccc(N(C)C)cc1` [trichostatin A], the HNF-3 beta gene expression (500 nM renewed daily, 24 hours) is reported as “+++ (detectable at less than 35 cycles by RT-PCR with std error less than 0.9)”, the Insulin gene expression (500 nM renewed daily, 24 hours) is reported as “nd (not detectable at >40 cycles by RT-PCR)” and the PDX-1 gene expression (500 nM renewed daily, 24 hours) is reported as “+++ (detectable at less than 35 cycles by RT-PCR with std error less than 0.9)”. The Sox17 gene expression (500 nM renewed daily, 24 hours) was “+++ (detectable at less than 35 cycles by RT-PCR with std error less than 0.9)”, the glucagon gene expression (500 nM renewed daily, 24 hours) was “+ (detectable between 35 and 40 cycles by RT-PCR)” and the HNF-3b gene expression (500 nM renewed daily, 48 hours) was “+++ (detectable at less than 35 cycles by RT-PCR with std error less than 0.9)”. The Insulin gene expression (500 nM renewed daily, 48 hours) was “nd (not detectable at >40 cycles by RT-PCR)”, the PDX-1 gene expression (500 nM renewed daily, 48 hours) was “+ (detectable between 35 and 40 cycles by RT-PCR)” and the Sox17 gene expression (500 nM renewed daily, 48 hours) was “+++ (detectable at less than 35 cycles by RT-PCR with std error less than 0.9)”. For the same compound, the glucagon gene expression (500 nM renewed daily, 48 hours) was “+ (detectable between 35 and 40 cycles by RT-PCR)”, the HNF-3b gene expression (500 nM renewed daily, 72 hours) was “+++ (detectable at less than 35 cycles by RT-PCR with std error less than 0.9)” and the Insulin gene expression (500 nM renewed daily, 72 hours) was “nd (not detectable at >40 cycles by RT-PCR)”. For the same compound, the PDX-1 gene expression (500 nM renewed daily, 72 hours) was “+++ (detectable at less than 35 cycles by RT-PCR with std error less than 0.9)”, the Sox17 gene expression (500 nM renewed daily, 72 hours) was “+++ (detectable at less than 35 cycles by RT-PCR with std error less than 0.9)” and the glucagon gene expression (500 nM renewed daily, 72 hours) was “+ (detectable between 35 and 40 cycles by RT-PCR)”. For the same compound, the HNF-3 beta gene expression (1 μM renewed daily, 24 hours) was “+++ (detectable at less than 35 cycles by RT-PCR with std error less than 0.9)”, the Insulin gene expression (1 μM renewed daily, 24 hours) was “nd (not detectable at >40 cycles by RT-PCR)” and the PDX-1 gene expression (1 μM renewed daily, 24 hours) was “+++ (detectable at less than 35 cycles by RT-PCR with std error less than 0.9)”. For the same compound, the Sox17 gene expression (1 μM renewed daily, 24 hours) was “+++ (detectable at less than 35 cycles by RT-PCR with std error less than 0.9)”, the glucagon gene expression (1 μM renewed daily, 24 hours) was “+++ (detectable at less than 35 cycles by RT-PCR with std error less than 0.9)” and the HNF-3b gene expression (1 μM renewed daily, 48 hours) was “+++ (detectable at less than 35 cycles by RT-PCR with std error less than 0.9)”. For the same compound, the Insulin gene expression (1 μM renewed daily, 48 hours) was “nd (not detectable at >40 cycles by RT-PCR)”, the PDX-1 gene expression (1 μM renewed daily, 48 hours) was “+++ (detectable at less than 35 cycles by RT-PCR with std error less than 0.9)” and the Sox17 gene expression (1 μM renewed daily, 48 hours) was “+++ (detectable at less than 35 cycles by RT-PCR with std error less than 0.9)”. For the same compound, the glucagon gene expression (1 μM renewed daily, 48 hours) was “++ (detectable at less than 35 cycles by RT-PCR with std error greater than 0.9)”, the HNF-3b gene expression (1 μM renewed daily, 72 hours) was “+++ (detectable at less than 35 cycles by RT-PCR with std error less than 0.9)” and the Insulin gene expression (1 μM renewed daily, 72 hours) was “nd (not detectable at >40 cycles by RT-PCR)”. For the same compound, the PDX-1 gene expression (1 μM renewed daily, 72 hours) was “+++ (detectable at less than 35 cycles by RT-PCR with std error less than 0.9)”, the Sox17 gene expression (1 μM renewed daily, 72 hours) was “+++ (detectable at less than 35 cycles by RT-PCR with std error less than 0.9)” and the glucagon gene expression (1 μM renewed daily, 72 hours) was “+++ (detectable at less than 35 cycles by RT-PCR with std error less than 0.9)”.
